Laboratory results published in US9969775B2, “CGRP antagonist peptides” (Ferring B.V., priority 2015, dated 2018).
Numbered stars: 1 amine (or outer) side, 2 acyl side, 3 side chain; on linkers, the order of the positions; unused ones are H or OH. Bridge positions count the residues as written; N and C are the ends. Square brackets hold non-standard residues; d marks the D form. Peptide text beside a SMILES is read from it. * marks the point of attachment. Phe(3-CH2NH2) = O=C([C@H](Cc1cccc(CN[*:3])c1)N[*:1])[*:2]; Phe(3-CONH2) = NC(=O)c1cccc(C[C@H](N)C(=O)O)c1; Phe(2-CONH2) = NC(=O)c1ccccc1C[C@H](N)C(=O)O; Phe(4-CH2NH2) = NCc1ccc(C[C@H](N)C(=O)O)cc1; X13 = N#CN=C(N)NCC[C@H](N[*:1])C(=O)[*:2]; Phe(3-CN) = N#Cc1cccc(C[C@H](N)C(=O)O)c1; X14 = CCN(CC)CCC[C@H](N[*:1])C(=O)[*:2]; Picolinoyl(5-F) = O=C(c1ccc(F)cn1)*; Orn(iPr) = CC(C)NCCC[C@H](N)C(=O)O; Benzoyl(4-F) = O=C(c1ccc(F)cc1)*; Oxazole2carbonyl = O=C(c1ncco1)*; 3Pal = N[C@@H](Cc1cccnc1)C(=O)O; Picolinoyl = O=C(c1ccccn1)*; ΔPro = O=C(O)[C@@H]1C=CCN1; Orn = NCCC[C@H](N)C(=O)O; X8 = CC(C)NCCOCCOCC(=O)*; X7 = O=C(c1cc(F)ccn1)*; X1 = O=C(c1ncccc1F)*; X6 = O=C(c1ccncn1)*

Key:
[1] = biological target: T1, hCGRP receptor (CALCRL:RAMP1) (Homo sapiens, UniProt O60894+Q16602); test: CGRP receptor antagonist activity measured by cAMP assay (HTRF); assay type: cell-based; settings: agonist human α-CGRP; for Emax: % MPE: percent of the maximal possible effect, read-out: hCGRP-R Efficacy Antag (%) Ave; for IC50: GeneBLAzer CALCRL:RAMP1-CRE-bla Freestyle 293F cells, 30 minutes, read-out: hCGRP-R IC50 Ave
T1 construct: host or cells: GeneBLAzer CALCRL:RAMP1-CRE-bla Freestyle 293F
T1 sequence (Q16602 23-461): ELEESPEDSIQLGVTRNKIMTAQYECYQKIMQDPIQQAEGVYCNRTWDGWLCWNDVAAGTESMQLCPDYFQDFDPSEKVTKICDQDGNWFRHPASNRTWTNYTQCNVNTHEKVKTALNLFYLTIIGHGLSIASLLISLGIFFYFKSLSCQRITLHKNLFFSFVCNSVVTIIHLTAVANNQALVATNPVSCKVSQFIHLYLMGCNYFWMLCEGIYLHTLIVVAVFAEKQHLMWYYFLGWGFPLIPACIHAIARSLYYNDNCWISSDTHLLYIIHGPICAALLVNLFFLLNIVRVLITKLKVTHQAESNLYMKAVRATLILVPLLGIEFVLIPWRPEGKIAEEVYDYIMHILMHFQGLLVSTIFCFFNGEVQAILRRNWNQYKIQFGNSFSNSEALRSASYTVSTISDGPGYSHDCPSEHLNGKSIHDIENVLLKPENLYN
T1 sequence (O60894 27-148): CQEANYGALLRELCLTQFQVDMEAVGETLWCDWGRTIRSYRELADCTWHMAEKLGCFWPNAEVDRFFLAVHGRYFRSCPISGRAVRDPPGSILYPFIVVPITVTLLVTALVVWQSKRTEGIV
Protocol: Example 6: CGRP Receptor Antagonist Activity Measured by cAMP Assay
CGRP receptor agonists increase intracellular cyclic adenosine mono-phosphate (cAMP). CGRP receptor antagonists can reduce the agonist effect. Antagonist activity was assessed by measurement of cyclic adenosine mono-phosphate (cAMP) using cell line stably expressing the hCGRP receptor (GeneBLAzer® CALCRL:RAMP1-CRE-bla Freestyle™ 293F, Invitrogen). hCGRP receptor expressing cells were maintained in DMEM high-glucose with GlutaMAX™ containing 10% (v/v) FBS, 0.1 mM NEAA, 25 mM HEPES, 5 ug/ml Blasticidin, 100 ug/ml Hygromycin, and 400 ug/ml Geneticin at 37° C. under 5% CO2 in a humidified atmosphere. For cAMP measurement, cells were washed once with 5 ml 1×PBS, cell maintenance media was replaced with compound buffer ((CB): DMEM containing 0.1% BSA and 0.5 mM IBMX), and flasks were incubated for 1 hour at 37° C. under 5% CO2 in a humidified atmosphere. Cells were removed from culture flasks using non-enzymatic cell dissociation buffer and harvested in CB. The reaction was performed in 384 well white small volume plates (Greiner) at a density of 10,000 cells/well. Cells were exposed to varying concentrations of antagonist compounds for 30 minutes in the presence of a fixed concentration of agonist (human α-CGRP). cAMP levels were measured using an HTRF (homogeneous time resolved fluorescence)-based competitive cAMP immunoassay (cAMP Dynamic 2 Kit, Cisbio), according to the manufacturer's instructions. […] Reported parameters include antagonist potency IC50 (the concentration causing half-maximal inhibition of the agonist response for antagonist compounds) and efficacy (% MPE: percent of the maximal possible effect).

[2] = biological target: T2, hAM2 receptor (CALCRL:RAMP3) (Homo sapiens, UniProt O60896+Q16602); test: AM2 receptor antagonist activity measured by cAMP assay (HTRF); assay type: cell-based; settings: for Emax: % MPE: percent of the maximal possible effect, read-out: hAM2-R Efficacy Antag (%) Ave; for Emax / IC50: agonist human adrenomedullin; for IC50: GeneBLAzer CALCRL:RAMP3-CRE-bla Freestyle 293F cells, read-out: hAM2-R IC50 Ave; for selectivity ratio CGRP/AM2: selectivity ratio for hCGRP over hAM2, calculated from the IC50 values
T2 construct: expressed in transfected cells; host or cells: GeneBLAzer CALCRL:RAMP3-CRE-bla Freestyle 293F
T2 sequence (Q16602 23-461): as the sequence (Q16602 23-461) above
T2 sequence (O60896 24-148): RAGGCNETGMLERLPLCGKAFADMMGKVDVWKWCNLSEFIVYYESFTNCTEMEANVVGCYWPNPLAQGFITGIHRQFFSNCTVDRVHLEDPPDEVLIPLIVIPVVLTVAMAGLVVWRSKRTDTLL
Protocol: Antagonist activity for the adrenomedullin receptor AM2 was determined using the method described in Example 6 above, with the following modifications. Instead of GeneBLAzer® CALCRL:RAMP1-CRE-bla Freestyle™ 293F cells, GeneBLAzer® CALCRL:RAMP3-CRE-bla Freestyle™ 293F cells were used to test activity at hAM2 receptors. The agonist was human adrenomedullin, instead of α-CGRP.
In Table 5, the selectivity ratio for hCGRP over hAM2 is calculated as hCGRP-R IC50/hAM2-R IC50.

SMILES | Emax [1] [%] | IC50 [1] [nM] | Emax [2] [%] | IC50 [2] [nM] | selectivity ratio CGRP/AM2 [2]
CC(C)NCCOCCOCC(=O)NCCC[C@@H]1NC(=O)[C@@H](NC(=O)[C@H](Cc2ccc(O)cc2)NC(=O)[C@H](NC(=O)c2ccc(F)cn2)C(C)C)CSSC[C@@H](C(=O)N[C@@H](Cc2cccnc2)C(N)=O)NC(=O)[C@H](Cc2ccccc2)NC(=O)[C@@H]2CCCN2C(=O)CNC(=O)[C@H](C(C)C)NC(=O)[C@H](CC(=O)O)NC1=O [Compound 13, Picolinoyl(5-F)-D-Val-Tyr-c(Cys-Orn(CO—CH2—(O—(CH2)2)2—NH-iPr)-Asp-Val-Gly-Pro-Phe-Cys)-3Pal-NH2] ({Picolinoyl(5-F)}-[dV]YC[Orn](X8)DVGPFC[3Pal]-NH2; disulfide 3-10) | 100 | 0.1 | 100 | 26 | 249
CC(C)NCCC[C@@H]1NC(=O)[C@@H](NC(=O)[C@H](Cc2ccc(O)cc2)NC(=O)[C@H](NC(=O)c2ccc(F)cn2)C(C)C)CSSC[C@@H](C(=O)N[C@@H](Cc2cccnc2)C(N)=O)NC(=O)[C@H](Cc2ccccc2)NC(=O)[C@@H]2CCCN2C(=O)CNC(=O)[C@H](C(C)C)NC(=O)[C@H](CC(=O)O)NC1=O [Compound 14, Picolinoyl(5-F)-D-Val-Tyr-c(Cys-Orn(iPr)-Asp-Val-Gly-Pro-Phe-Cys)-3Pal-NH2] ({Picolinoyl(5-F)}-[dV]YC[Orn(iPr)]DVGPFC[3Pal]-NH2; disulfide 3-10) | 100 | 0.12 | 100 | 20 | 167
CC(C)[C@@H]1NC(=O)[C@H](CC(=O)O)NC(=O)[C@H](CCCNC(=N)N)NC(=O)[C@@H](NC(=O)[C@H](Cc2ccccc2C(N)=O)NC(=O)[C@H](NC(=O)c2ccc(F)cc2)C(C)C)CSSC[C@@H](C(=O)N[C@@H](Cc2cccnc2)C(N)=O)NC(=O)[C@H](Cc2ccccc2)NC(=O)[C@@H]2CCCN2C(=O)CNC1=O [Compound 15] ({Benzoyl(4-F)}-[dV][Phe(2-CONH2)]CRDVGPFC[3Pal]-NH2; disulfide 3-10) | 100 | 0.1 | 99 | 58 | 610
CC(C)[C@@H]1NC(=O)[C@H](CC(=O)O)NC(=O)[C@H](CCCNC(=N)N)NC(=O)[C@@H](NC(=O)[C@H](Cc2ccc(O)cc2)NC(=O)[C@H](NC(=O)c2ccncn2)C(C)C)CSSC[C@@H](C(=O)N[C@@H](Cc2cccnc2)C(N)=O)NC(=O)[C@H](Cc2ccccc2)NC(=O)[C@@H]2CCCN2C(=O)CNC1=O [Compound 16] (X6-[dV]YCRDVGPFC[3Pal]-NH2; disulfide 3-10) | 100 | 0.07 | 101 | 6.8 | 93
CC(C)[C@@H]1NC(=O)[C@H](CC(=O)O)NC(=O)[C@H](CCCNC(=N)N)NC(=O)[C@@H](NC(=O)[C@H](Cc2ccc(O)cc2)NC(=O)[C@H](NC(=O)c2ncccc2F)C(C)C)CSSC[C@@H](C(=O)N[C@@H](Cc2cccnc2)C(N)=O)NC(=O)[C@H](Cc2ccccc2)NC(=O)[C@@H]2CCCN2C(=O)CNC1=O [Compound 17] (X1-[dV]YCRDVGPFC[3Pal]-NH2; disulfide 3-10) | 100 | 0.05 | 100 | 7.1 | 148
CC(C)[C@@H]1NC(=O)[C@H](CC(=O)O)NC(=O)[C@H](CCCNC(=N)N)NC(=O)[C@@H](NC(=O)[C@H](Cc2ccc(O)cc2)NC(=O)[C@H](NC(=O)c2cc(F)ccn2)C(C)C)CSSC[C@@H](C(=O)N[C@@H](Cc2cccnc2)C(N)=O)NC(=O)[C@H](Cc2ccccc2)NC(=O)[C@@H]2CCCN2C(=O)CNC1=O [Compound 18] (X7-[dV]YCRDVGPFC[3Pal]-NH2; disulfide 3-10) | 100 | 0.16 | 98 | 8.1 | 52
CC(C)[C@@H]1NC(=O)[C@H](CC(=O)O)NC(=O)[C@H](CCNC(N)=NC#N)NC(=O)[C@@H](NC(=O)[C@H](Cc2ccc(O)cc2)NC(=O)[C@H](NC(=O)c2ccc(F)cc2)C(C)C)CSSC[C@@H](C(=O)N[C@@H](Cc2cccnc2)C(N)=O)NC(=O)[C@H](Cc2ccccc2)NC(=O)[C@@H]2CCCN2C(=O)CNC1=O [Compound 19, Bz(4-F)-D-Val-Tyr-c(Cys-norArg(CN)-Asp-Val-Gly-Pro-Phe-Cys)-3Pal-NH2] ({Benzoyl(4-F)}-[dV]YC[X13]DVGPFC[3Pal]-NH2; disulfide 3-10) | 100 |  | 100 |  | 
CC(C)[C@@H]1NC(=O)[C@H](CC(=O)O)NC(=O)[C@H](CCCNC(=N)N)NC(=O)[C@@H](NC(=O)[C@H](Cc2ccc(O)cc2)NC(=O)[C@H](NC(=O)c2ccc(F)cc2)C(C)C)CSSC[C@@H](C(=O)N[C@@H](Cc2cccnc2)C(N)=O)NC(=O)[C@H](Cc2ccc(CN)cc2)NC(=O)[C@@H]2CCCN2C(=O)CNC1=O [Compound 20, Bz(4-F)-D-Val-Tyr-c(Cys-Arg-Asp-Val-Gly-Pro-Phe(4-CH2NH2)-Cys)-3Pal-NH2] ({Benzoyl(4-F)}-[dV]YCRDVGP[Phe(4-CH2NH2)]C[3Pal]-NH2; disulfide 3-10) | 100 | 0.18 | 100 | 54 | 309
CC(C)[C@@H]1NC(=O)[C@H](CC(=O)O)NC(=O)[C@H](CCCNC(=N)N)NC(=O)[C@@H](NC(=O)[C@H](Cc2ccc(O)cc2)NC(=O)[C@H](NC(=O)c2ccc(F)cc2)C(C)C)CSSC[C@@H](C(=O)N[C@@H](Cc2cccnc2)C(N)=O)NC(=O)[C@H](Cc2cccc(C#N)c2)NC(=O)[C@@H]2CCCN2C(=O)CNC1=O [Compound 21, Bz(4-F)-D-Val-Tyr-c(Cys-Arg-Asp-Val-Gly-Pro-Phe(3-CN)-Cys)-3Pal-NH2] ({Benzoyl(4-F)}-[dV]YCRDVGP[Phe(3-CN)]C[3Pal]-NH2; disulfide 3-10) | 100 | 0.13 | 99 | 33 | 258
CC(C)[C@@H]1NC(=O)[C@H](CC(=O)O)NC(=O)[C@H](CCCNC(=N)N)NC(=O)[C@@H](NC(=O)[C@H](Cc2cccc(CN)c2)NC(=O)[C@H](NC(=O)c2ccc(F)cc2)C(C)C)CSSC[C@@H](C(=O)N[C@@H](Cc2cccnc2)C(N)=O)NC(=O)[C@H](Cc2ccc(O)cc2)NC(=O)[C@@H]2C=CCN2C(=O)CNC1=O [Compound 22, Bz(4-F)-D-Val-Phe(3-CH2NH2)-c(Cys-Arg-Asp-Val-Gly-Dhp-Tyr-Cys)-3Pal-NH2] ({Benzoyl(4-F)}-[dV][Phe(3-CH2NH2)]CRDVG[ΔPro]YC[3Pal]-NH2; disulfide 3-10) | 100 | 0.19 | 101 | 33 | 175
CC(C)[C@@H]1NC(=O)[C@H](CC(=O)O)NC(=O)[C@H](CCCNC(=N)N)NC(=O)[C@@H](NC(=O)[C@H](Cc2cccc(CN)c2)NC(=O)[C@H](NC(=O)c2ncco2)C(C)C)CSSC[C@@H](C(=O)N[C@@H](Cc2cccnc2)C(N)=O)NC(=O)[C@H](Cc2cccc(C(N)=O)c2)NC(=O)[C@@H]2C=CCN2C(=O)CNC1=O [Compound 23, Oxazole-2-carbonyl-D-Val-Phe(3-CH2NH2)-c(Cys-Arg-Asp-Val-Gly-Dhp-Phe(3-Cbm)-Cys)-3Pal-NH2] (Oxazole2carbonyl-[dV][Phe(3-CH2NH2)]CRDVG[ΔPro][Phe(3-CONH2)]C[3Pal]-NH2; disulfide 3-10) | 100 | 0.05 | 100 | 21 | 400
CCN(CC)CCC[C@@H]1NC(=O)[C@@H](NC(=O)[C@H](Cc2ccc(O)cc2)NC(=O)[C@H](NC(=O)c2ccccn2)C(C)C)CSSC[C@@H](C(=O)N[C@@H](Cc2cccnc2)C(N)=O)NC(=O)[C@H](Cc2ccccc2)NC(=O)[C@@H]2CCCN2C(=O)CNC(=O)[C@H](C(C)C)NC(=O)[C@H](CC(=O)O)NC1=O [Compound 24, Picolinoyl-D-Val-Tyr-c(Cys-Orn(Et2)-Asp-Val-Gly-Pro-Phe-Cys)-3Pal-NH2] (Picolinoyl-[dV]YC[X14]DVGPFC[3Pal]-NH2; disulfide 3-10) | 100 | 0.11 | 98 | 128 | 1213
